Tests used:
Nucleic Acid = assay: The compound was evaluated for binding affinity towards calf thymus DNA.; type: nucleic-acid assay; settings: Bos taurus
J774.A1 [1] = assay: Inhibition of NO production by J774.A1 cells stimulated for 18 hr with Escherichia coli at 0.5 uM, measured as nitrite using the Griess assay; effectively inhibited; type: functional, cell-based; settings: Mus musculus
J774.A1 [2] = assay: Inhibition of TNF-alpha production by J774.A1 cells stimulated for 18 hr with Escherichia coli at 0.9 uM, by ELISA assay; effectively inhibited; type: functional, cell-based; settings: Mus musculus

C50 (Nucleic Acid) | SMILES | inhibition (J774.A1 [1]) | inhibition (J774.A1 [2])
1.35 µM | CCCCCCCCCCCCCCCC(=O)NCCCNCCCCNCCCN |  | 
0.9 µM | CCCCCCCCCCCCCCCC(=O)NCCCNCCCNCCCCNCCCN | effectively inhibited | effectively inhibited
1.29 µM | CCCCCCCC/C=C/CCCCCCCC(=O)NCCCNCCCCNCCCN |  | 
1.27 µM | CCCCCCCCCCCCCCCCCC(=O)NCCCNCCCCNCCCN |  | 

Source: ChEMBL document CHEMBL1133065, “Lipopolyamines incorporating the tetraamine spermine, bound to an alkyl chain, sequester bacterial lipopolysaccharide” (Bioorg Med Chem Lett, 2000)
